Read-outs that look alike come from different tables or passages of the source. Some results are limits rather than exact numbers.

What is called Ki is a measure of affinity in units of concentration, obtained from inhibition or displacement.

For one assay, the system named is plasma cholesterol. Kind of assay: Cholesterol lowering in hypercholesterolemic rats. In kind it is in vivo. The settings on record: for change in vivo at 0.5 mg/kg/day / change in vivo at 0.2 mg/kg/day: Rattus norvegicus, read-out: % Cholesterol Lowering; for cholesterol lowering / efficacy in lowering cholesterol: hypercholesterolemic rats; for cholesterol lowering: 0.5 mg/kg/d orally; for efficacy in lowering cholesterol: another experiment.

The target of assay [1] is T1, human thyroid hormone receptors TRα1 (Homo sapiens, UniProt P10827).
T1 construct: made in house; host or cells: Sf9 insect cells (baculovirus)
T1 sequence (P10827 1-410 isoform P10827-2): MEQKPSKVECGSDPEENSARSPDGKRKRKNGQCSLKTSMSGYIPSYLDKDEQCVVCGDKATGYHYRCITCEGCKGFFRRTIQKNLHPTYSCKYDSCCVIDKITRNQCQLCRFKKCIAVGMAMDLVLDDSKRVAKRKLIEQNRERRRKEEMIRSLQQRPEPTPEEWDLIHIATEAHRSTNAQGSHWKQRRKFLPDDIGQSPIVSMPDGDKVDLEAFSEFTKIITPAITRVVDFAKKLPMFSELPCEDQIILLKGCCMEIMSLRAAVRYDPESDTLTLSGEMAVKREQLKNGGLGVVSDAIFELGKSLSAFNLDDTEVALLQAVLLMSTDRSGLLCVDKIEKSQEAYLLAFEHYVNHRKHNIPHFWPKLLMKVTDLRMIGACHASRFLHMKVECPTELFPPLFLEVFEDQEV
T1 sequence (P19793 1-462 partner): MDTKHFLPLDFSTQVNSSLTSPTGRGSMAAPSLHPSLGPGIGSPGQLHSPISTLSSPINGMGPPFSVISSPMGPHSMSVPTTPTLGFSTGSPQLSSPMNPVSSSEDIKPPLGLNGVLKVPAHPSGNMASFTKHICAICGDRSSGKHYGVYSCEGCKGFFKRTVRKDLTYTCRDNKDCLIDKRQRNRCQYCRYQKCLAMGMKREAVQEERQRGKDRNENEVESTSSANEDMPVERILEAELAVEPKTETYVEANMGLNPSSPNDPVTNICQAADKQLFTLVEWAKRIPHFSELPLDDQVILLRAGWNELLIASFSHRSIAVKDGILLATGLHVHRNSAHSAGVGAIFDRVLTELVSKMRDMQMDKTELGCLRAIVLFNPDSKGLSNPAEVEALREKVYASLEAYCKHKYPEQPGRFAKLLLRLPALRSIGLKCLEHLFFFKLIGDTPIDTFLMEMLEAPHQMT
Briefly: Receptor binding to TRα1 (gel filtration and scintillation proximity assay, labeled T3). To be noted: read-out: Ki TRα. The procedure:
(§1) Methods: Baculoviruses expressing TRα1, TRβ1 and RXRα were generated using cDNA and other reagents from Invitrogen (Carlsbad, Calif.). To produce TR/RXR heterodimer proteins, the sf9 insect cells were first grown to a density of 1-5×10^5 cells/mL. […] and RXRα baculovirus stocks were added to the cell culture with a ratio of 1 to 1 (multiplicity of infection=10). The cells were harvested three days after the infection.
(§2) Binding of compounds to either the TRα1 or TRβ1 were also performed by means of scintillation proximity assays (SPA). The SPA assay, a common method used for the quantitation of receptor-ligand equilibria, makes use of special beads coated with a scintillant and a capture molecule, copper, which binds to the histidine-tagged α or β receptor.

The target in assay [2] is T2, human thyroid hormone receptors TRβ1 (Homo sapiens, UniProt P10828).
T2 construct: made in house; host or cells: Sf9 insect cells (baculovirus)
T2 sequence (P10828 1-461): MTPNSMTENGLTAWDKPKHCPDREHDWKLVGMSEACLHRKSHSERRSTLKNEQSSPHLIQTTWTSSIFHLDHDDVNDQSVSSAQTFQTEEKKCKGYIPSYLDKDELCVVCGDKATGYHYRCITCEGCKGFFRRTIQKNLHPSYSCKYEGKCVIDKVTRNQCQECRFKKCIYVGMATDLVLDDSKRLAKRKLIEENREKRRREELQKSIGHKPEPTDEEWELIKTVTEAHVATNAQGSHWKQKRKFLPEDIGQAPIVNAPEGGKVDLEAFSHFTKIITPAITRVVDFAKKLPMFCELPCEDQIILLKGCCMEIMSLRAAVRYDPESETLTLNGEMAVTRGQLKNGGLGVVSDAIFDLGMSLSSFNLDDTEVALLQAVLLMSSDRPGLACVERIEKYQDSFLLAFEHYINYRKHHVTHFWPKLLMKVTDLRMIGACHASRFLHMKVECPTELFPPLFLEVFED
T2 sequence (P19793 1-462 partner): T1 sequence (P19793 1-462 partner)
Kind of assay: Receptor binding to TRβ1 (gel filtration and scintillation proximity assay, labeled T3). The settings on record: read-out: Ki TRβ. As for the experimental part:
as §1, §2
On the technique in general: SEC sorts molecules by how far they enter the pores of the column.

The mark [3] stands for this setting: po, delivered p.o. (0.5 mg/kg/d), percentage change from pre-dose cholesterol.
The mark [4] stands for this setting: ip, delivered i.p (0.2 mg/kg/d), percentage change from pre-dose cholesterol.
[5] abbreviates: delivered p.o. (0.5 mg/kg/d), percentage change from pre-dose cholesterol.

With `CC(C)c1cc(Oc2c(Br)cc(CP(=O)(OCOC(=O)C(C)(C)C)OCOC(=O)C(C)(C)C)cc2Br)ccc1O` [Compound 12-5, Di-(pivaloyloxymethyl)[3,5-dibromo-4-(4′-hydroxy-3′-iso-propylphenoxy)benzyl]phosphonate], in the assay with plasma cholesterol (setting [3]), the change in vivo at 0.5 mg/kg/day is -32.5%. For the same molecule, the cholesterol lowering entry with plasma cholesterol is listed as “demonstrated a significant lowering of cholesterol”.
Regarding “[3,5-dimethyl-4-(4′-Hydroxy-3′-iso-propyl-phenyl)methoxymethyl]phenoxy]methylphosphonic acid [Compound 33]”, the values for the Ki in assay [1] (SPA data) and in assay [2] (SPA data) were 267 nM and 16.7 nM, respectively. Further, the “% Cholesterol Lowering” value in the assay with plasma cholesterol (delivered i.p (0.2 mg/kg/d), percentage change from pre-dose cholesterol) is recorded as −32.5%.
On to `Cc1cc(/C=C/P(=O)(O)O)cc(C)c1Cc1ccc(O)c(C(C)C)c1` [Compound 24-2, trans-2-[3,5-dimethyl-4-(4′-hydroxy-3′-iso-propylbenzyl)phenyl]vinylphosphonic acid], for which the Ki in assay [1] (SPA data) was above 2000 nM; in assay [2] (SPA data), 24 nM. The change in vivo at 0.2 mg/kg/day in the assay with plasma cholesterol (setting [4]) was -20.5%.
`COP(=O)(O)Cc1cc(Br)c(Oc2ccc(O)c(C(C)C)c2)c(Br)c1` [Compound 69-2, [3,5-dibromo-4-(4′-hydroxy-3′-isopropylphenoxy)benzyl]phosphonic Acid Monomethyl Ester]: the Ki came to 2.8 nM in assay [1] (SPA data) and 0.8 nM in assay [2] (SPA data). In the assay with plasma cholesterol (po), the change in vivo at 0.2 mg/kg/day was -49.9%.
Take `CCOC(=O)[C@H](C)NP(=O)(COc1cc(C)c(Cc2ccc(O)c(C(C)CC)c2)c(C)c1)N[C@@H](C)C(=O)OCC` (stereo partly drawn) [Compound 15-4, di-N-(L-1-ethoxycarbonylethylamino)[3,5-dimethyl-4-(4′-hydroxy-3′-sec-butylbenzyl)phenoxy]methylphosphonamide]: the change in vivo at 0.5 mg/kg/day with plasma cholesterol (setting [3]) was -39.6%.
Regarding `Cc1cc(CCP(=O)(O)O)cc(C)c1Cc1ccc(O)c(C(C)C)c1` [Compound 24-1, 2-[3,5-dimethyl-4-(4′-hydroxy-3′-iso-propylbenzyl)phenyl]ethylphosphonic acid], the Ki in assay [2] was 31 nM. For the same molecule, the change in vivo at 0.2 mg/kg/day in the assay with plasma cholesterol (setting [4]) was -35.4%.
Take `CCOP(=O)(Cc1cc(Br)c(Oc2ccc(O)c(C(C)C)c2)c(Br)c1)OCC` [Compound 19-1, diethyl[3,5-dibromo-4-(4′-hydroxy-3′-iso-propylphenoxy)]benzylphosphonate]: the change in vivo at 0.5 mg/kg/day in the assay on plasma cholesterol (po) is -6.6%. Further, the cholesterol lowering result in the assay with plasma cholesterol is “failed to demonstrate cholesterol lowering”.
With `CC(C)c1cc(Cc2c(Cl)cc(OC[P@@]3(=O)OCC[C@@H](c4cccc(Cl)c4)O3)cc2Cl)ccc1O` (relative stereo) [Compound 13-11, Cis(S)-2-[(3,5-dichloro-4-(4′-hydroxy-3′-iso-propylbenzyl)phenoxy)methyl]-4-(3-chlorophenyl)-2-oxo-2λ^5-[1,3,2]-dioxaphosphonane], in the assay with plasma cholesterol (setting [5]), the “% Cholesterol Lowering” value is on record as −24.8%.
Consider `CCOC(=O)[C@H](C)NP(=O)(COc1cc(Cl)c(Cc2ccc(O)c(C(C)C)c2)c(Cl)c1)N[C@@H](C)C(=O)OCC` [Compound 15-7], for which, in the assay with plasma cholesterol (setting [5]), the “% Cholesterol Lowering” value is listed as −29.1%.
Take `CCC(C)c1cc(Cc2c(C)cc(OCP(=O)(OCOC(=O)C(C)(C)C)OCOC(=O)C(C)(C)C)cc2C)ccc1O` (centres unmarked) [Compound 12-4, Di-(pivaloyloxymethyl)[3,5-dimethyl-4-(4′-hydroxy-3′-sec-butylbenzyl)phenoxy]methylphosphonate]: the change in vivo at 0.5 mg/kg/day in the assay on plasma cholesterol (setting [3]) is -30.5%.
Regarding `CCC(C)c1cc(Cc2c(C)cc(OC[P@@]3(=O)OCC[C@@H](c4cccc(Cl)c4)O3)cc2C)ccc1O` (stereo partly drawn) [Compound 13-8, Cis-(S)-2-[(3,5-dimethyl-4-(4′-hydroxy-3′-sec-butylbenzyl)phenoxy)methyl]-4-(3-chlorophenyl)-2-oxo-2λ^5-[1,3,2]-dioxaphosphonane], in the assay on plasma cholesterol (setting [3]), the change in vivo at 0.5 mg/kg/day is -26.5%.
As for `CC(C)c1cc(Cc2c(Cl)cc(OCP(=O)(OCOC(=O)C(C)(C)C)OCOC(=O)C(C)(C)C)cc2Cl)ccc1O` [Compound 12-8, Di(pivaloyloxymethyl)[3,5-dichloro-4-(4′-hydroxy-3′-iso-propylbenzyl)phenoxy]methylphosphonate], the change in vivo at 0.5 mg/kg/day in the assay with plasma cholesterol (setting [3]) was -33.7%.
`CCOC(=O)[C@H](C)NP(=O)(Cc1cc(Br)c(Oc2ccc(O)c(C(C)C)c2)c(Br)c1)N[C@@H](C)C(=O)OCC` [Compound 15-5, di-N-(L-1-ethoxycarbonylethylamino)[3,5-dibromo-4-(4′-hydroxy-3′-iso-propylphenoxy)benzyl]phosphonamide]: the change in vivo at 0.5 mg/kg/day in the assay with plasma cholesterol (setting [3]) is -29.9%. Moreover, the cholesterol lowering entry in the assay on plasma cholesterol is on record as “demonstrated a significant lowering of cholesterol”.
For the molecule `CC(C)c1cc(Oc2c(Br)cc(C[P@@]3(=O)OCC[C@@H](c4cccc(Cl)c4)O3)cc2Br)ccc1O` [Compound 13-9, Cis-(S)-2-[3,5-dibromo-4-(4′-hydroxy-3′-iso-propylphenoxy)benzyl]-4-(3-chlorophenyl)-2-oxo2λ^5-[1,3,2]-dioxaphosphonane], the change in vivo at 0.5 mg/kg/day in the assay with plasma cholesterol (setting [3]) was -10.9%. For the same molecule, the cholesterol lowering entry in the assay with plasma cholesterol was “failed to demonstrate cholesterol lowering”.
In the case of `CCOC(=O)[C@H](C)NP(=O)(COc1cc(I)c(Oc2ccc(O)c(C(C)C)c2)c(I)c1)N[C@@H](C)C(=O)OCC` [Compound 15-8], the change in vivo at 0.5 mg/kg/day in the assay on plasma cholesterol (setting [3]) is -31.1%.
With `CC(C)c1cc(Oc2c(I)cc(OCP(=O)(OCOC(=O)C(C)(C)C)OCOC(=O)C(C)(C)C)cc2I)ccc1O` [Compound 12-7, Di(pivaloyloxymethyl)[3,5-diiodo-4-(4′-hydroxy-3′-iso-propylphenoxy)phenoxy]methylphosphonate], in the assay with plasma cholesterol (setting [5]), the “% Cholesterol Lowering” value is recorded as −39.1%.
Take `CC(C)c1cc(Oc2c(Cl)c(F)nc(NCP(=O)(OCOC(=O)C(C)(C)C)OCOC(=O)C(C)(C)C)c2Cl)ccc1O` [Compound 12-9]: the “efficacy in lowering cholesterol” value in the assay on plasma cholesterol is on record as “not efficacious”.
Take `CC(C)c1cc(Oc2c(Br)cc(NCP(=O)(O)O)cc2Br)ccc1O` [Compound 22-1, [3,5-dibromo-4-(4′-hydroxy-3′-iso-propylphenoxy)phenylamino]methylphosphonic acid]: in assay [2], the inhibition constant (Ki) was determined as 1.5 nM. For the same molecule, in the assay with plasma cholesterol (po, delivered p.o. (0.2 mg/kg/d), percentage change from pre-dose cholesterol), the change in vivo at 0.2 mg/kg/day was -19.9%.
In the case of `O=P(O)(O)Cc1cc(Cl)c(Oc2ccc(O)c(S(=O)(=O)N3CCCCC3)c2)c(Cl)c1` [Compound 9, 3,5-dichloro-4-[4′-hydroxy-3′-(N-piperidinylsulfonamido)phenoxy]benzylphosphonic acid], the inhibition constant (Ki) in assay [1] (SPA data) came to 350 nM; in assay [2] (SPA data) it was 204 nM.
Consider `CC(C)c1cc(Oc2c(I)cc(OC[P@@]3(=O)OCC[C@@H](c4cccc(Cl)c4)O3)cc2I)ccc1O` [Compound 13-10], for which the change in vivo at 0.5 mg/kg/day in the assay on plasma cholesterol (setting [3]) was -25.8%.
In the case of `Cc1cc(OC[P@]2(=O)OCC[C@@H](c3cc(Cl)cc(Cl)c3)O2)cc(C)c1Cc1ccc(O)c(C(C)C)c1` [Compound 13-7-trans], the inhibition constant Ki amounted to 1550 nM in assay [1] (SPA data) and 3800 nM in assay [2] (SPA data).
As to `CC(C)c1cc(Oc2c(I)cc(CP(=O)(O)O)cc2I)ccc1O` [Compound 5, 3,5-diiodo-4-(4′-hydroxy-3′-iso-propylphenoxy)benzylphosphonic acid], the figures for the inhibitory constant (Ki) in assay [1] and in assay [2] were 1.84 nM and 0.84 nM, respectively.
Consider `Cc1cc(OC[P@@]2(=O)OCC[C@@H](c3cccc(Br)c3)O2)cc(C)c1Cc1ccc(O)c(C(C)C)c1` [cis-13-2], for which the “efficacy in lowering cholesterol” value with plasma cholesterol was “not efficacious”.

(Values after patent US20090028925A1, “Novel Phosphinic Acid-Containing Thyromimetics” (priority 2005, published 2009).)
